Results from patent US20140296528A1, “4-ARYL-1-(BIARYLMETHYLENE) PIPERIDINE COMPOUNDS” (KING ABDULAZIZ CITY FOR SCIENCE AND TECHNOLOGY, priority 2013, published 2014).

System: not given
Settings: not given

| melting point [°C] | SMILES |
| --- | --- |
| 84 to 85 | COc1ccc2cccc(C3CCN(Cc4ccc(-c5ccccc5)cc4)CC3)c2n1 [Compound 3a, 8-(1-(Biphenyl-4-ylmethyl)piperidin-4-yl)-2-methoxyquinoline] |
| 135 to 137 | COc1ccc2cccc(C3CCN(Cc4cncc(-c5ccccc5)c4)CC3)c2n1 [Compound 3c, 2-Methoxy-8-(1-((5-phenylpyridin-3-yl)methyl)piperidin-4-yl)quinoline] |
| 156 to 158 | COc1ccc2cccc(C3CCN(Cc4cncc(-c5ccc(F)cc5)c4)CC3)c2n1 [Compound 3d, 8-(1-((5-(4-Fluorophenyl)pyridin-3-yl)methyl)piperidin-4-yl)-2-methoxyquinoline] |
| 125 to 126 | COc1ccc2cccc(C3CCN(Cc4cccc(C5=CCCC5)c4)CC3)c2n1 [Compound 3e, 8-(1-(3-Cyclopentenylbenzyl)piperidin-4-yl)-2-methoxyquinoline] |
| 146 to 148 | O=c1ccc2cccc(C3CCN(Cc4ccc(-c5ccccc5)cc4)CC3)c2[nH]1 [Compound 4a, 8-(1-(Biphenyl-4-ylmethyl)piperidin-4-yl)quinolin-2(1H)-one] |
| 159 to 161 | O=c1ccc2cccc(C3CCN(Cc4ccc(-c5ccc(F)cc5)cc4)CC3)c2[nH]1 [Compound 4b, 8-(1-((4′-Fluorobiphenyl-4-yl)methyl)piperidin-4-yl)quinolin-2(1H)-one] |
| 158 to 160 | O=c1ccc2cccc(C3CCN(Cc4cncc(-c5ccccc5)c4)CC3)c2[nH]1 [Compound 4c, 8-(1-((5-Phenylpyridin-3-yl)methyl)piperidin-4-yl)quinolin-2(1H)-one] |
| 161 to 163 | O=c1ccc2cccc(C3CCN(Cc4cncc(-c5ccc(F)cc5)c4)CC3)c2[nH]1 [Compound 4d, 8-(1-((5-(4-Fluorophenyl)pyridin-3-yl)methyl)piperidin-4-yl)quinolin-2(1H)-one] |
| 123 to 125 | O=c1ccc2cccc(C3CCN(Cc4cccc(C5=CCCC5)c4)CC3)c2[nH]1 [Compound 4e, 8-(1-(3-Cyclopentenylbenzyl)piperidin-4-yl)quinolin-2(1H)-one] |
| 133 to 135 | O=c1ccc2cccc(C3CCN(Cc4cncc(C5=CCCC5)c4)CC3)c2[nH]1 [Compound 4f, 8-(1-((5-Cyclopentenylpyridin-3-yl)-methyl)piperidin-4-yl)quinolin-2(1H)-one] |
| 116 to 118 | O=C1CCc2cccc(C3CCN(Cc4ccc(-c5ccccc5)cc4)CC3)c2N1 [Compound 5a, 8-(1-(Biphenyl-4-ylmethyl)piperidin-4-yl)-3,4-dihydroquinolin-2(1H)-one] |
| 132 to 134 | O=C1CCc2cccc(C3CCN(Cc4ccc(-c5ccc(F)cc5)cc4)CC3)c2N1 [Compound 5b, 8-(1-((4′-Fluorobiphenyl-4-yl)methyl)piperidin-4-yl)-3,4-dihydroquinolin-2(1H)-one] |
| 136 to 138 | O=C1CCc2cccc(C3CCN(Cc4cncc(-c5ccc(F)cc5)c4)CC3)c2N1 [Compound 5d, 8-(1-((5-(4-Fluorophenyl)pyridin-3-yl)methyl)piperidin-4-yl)-3,4-dihydroquinolin-2(1H)-one] |
| 115 to 117 | O=C1CCc2cccc(C3CCN(Cc4cccc(C5=CCCC5)c4)CC3)c2N1 [Compound 5e, 8-(1-(3-Cyclopentenylbenzyl)piperidin-4-yl)-3,4-dihydroquinolin-2(1H)-one] |
| 123 to 125 | O=C1CCc2cccc(C3CCN(Cc4cncc(C5=CCCC5)c4)CC3)c2N1 [Compound 5f, 8-(1-((5-cyclopentenylpyridin-3-yl)methyl)piperidin-4-yl)-3,4-dihydroquinolin-2(1H)-one] |

System: phencyclidine-induced social interaction deficits
Settings: background statement on prior-art compounds; cited from earlier work

| SMILES | oppose phencyclidine-induced social interaction deficits |
| --- | --- |
| Fc1ccc(-c2cncc(CN3CCN(c4cccc5c4OCCO5)CC3)c2)cc1 [adoprazine] | failure |
| O=c1[nH]c2cccc(N3CCN(Cc4cccc(-c5ccccc5)c4)CC3)c2o1 [bifeprunox] | failure |
